From article PMC3692405, “Disease-associated mutations in CNGB3 promote cytotoxicity in photoreceptor-derived cells” (Molecular Vision, 2013)

Assays:
[1] = system: channel-transfected 661W cells; assay: LDH-release cytotoxicity assay, channel-transfected cells; format: cell-based, mouse; conditions: CPT-cAMP alone, 0.1 to 10 µM; data not shown
Protocol: The mouse photoreceptor 661W cell line used in this study was generously provided by Dr. Al-Ubaidi (University of Oklahoma Health Sciences Center, Oklahoma City, OK). The 661W cells were routinely maintained in Dulbecco’s modified Eagle’s medium (Gibco, Carlsbad, CA), supplemented with 10% fetal bovine serum (Gemini Bioproducts, Sacramento, CA) and 1% penicillin/streptomycin (Gibco), at 37 °C in a humidified incubator with 5% CO2; cells were subcultured every 3–5 days. The 661W cells were transfected with pOPRSVI plasmids encoding human cone CNG channel subunits using Lipofectamine™ 2000 and OptiMEM (Life Technologies, Carlsbad, CA) according to the manufacturer’s protocol for cells in suspension. […]
For most experiments, the LDH Cytotoxicity Detection Kit (Roche Applied Science) was used according to the manufacturer’s protocol (see also [37]). […] Following treatment, half of the culture medium was transferred to another 96-well plate and the LDH released into the culture medium was measured to assess the number of damaged/dead cells. Cells in the original plate were then lysed and the total amount of cellular LDH was assessed. The percentage cytotoxicity was then calculated from the ratio of LDH concentration in the medium/cells, and was normalized to the percentage cytotoxicity in untreated cells transfected with control pOPRSVI plasmid only.

[2] = system: 661W cells expressing CNG channels with the F525N mutation; assay: LIVE/DEAD Viability/Cytotoxicity Kit staining, cells expressing F525N; format: cell-based, mouse; conditions: 0.1 µM CPT-cGMP, 24 h; compared to WT-expressing or untreated F525N-expressing cells
Protocol: The viability of 661W cells transfected with WT or mutant CNG channels was also assessed using the LIVE⁄DEAD® Viability⁄Cytotoxicity Kit (Life Technologies) according to the manufacturer’s protocol. Briefly, cells were transfected under the conditions described above and plated into 4-well multi-chamber Lab-Tek glass slides (Nalge Nunc International, Rochester, NY). At the end of cyclic nucleotide treatment, cells were washed with PBS three times and stained with 2 μM calcein AM and 4 μM ethidium homodimer-1 solution at room temperature for 30 min. Fluorescence microscopy was then performed to visualize the live and dead cells. Imaging of cells was performed at the Washington State University Franceschi Microscopy and Imaging Center. Images were obtained using a 10× objective on an Axiovert 200M inverted microscope equipped with a Zeiss LSM 510 confocal laser-scanning system and a krypton-argon laser. Fluorescence was measured using an excitation wavelength of 488 nm, and a 522 DF 32 emission filter for green fluorescence and 635 DF 32 emission filter for red fluorescence.

SMILES: Nc1ncnc2c1nc(Sc1ccc(Cl)cc1)n2[C@@H]1O[C@@H]2COP(=O)(O)O[C@H]2[C@H]1O [CPT-cAMP, CPT-adenosine 3′,5′-cyclic monophosphate]
- effect on relative cytotoxicity [1]: no significant increase in relative cytotoxicity

SMILES: Nc1nc2c(nc(Sc3ccc(Cl)cc3)n2[C@@H]2O[C@@H]3COP(=O)(O)O[C@H]3[C@H]2O)c(=O)[nH]1 [CPT-cGMP, 8-(4-chlorophenylthio) guanosine 3′,5′-cyclic monophosphate]
- damaged/dead and intact/viable cells (calcein AM / ethidium homodimer-1 fluorescence) [2]: more damaged/dead cells (red fluorescence) and less intact/viable cells
